According to patent US10426772B2, “Use of ergot alkaloids as an anthelmintic agent” (priority 2016, dated 2019):

Assays:
[1] = biological target: Sm.5HTR (Schistosoma mansoni, UniProt G4V5G4); type: cell-based; conditions: FIG. 10A
[2] = test system: adult S. mansoni; test: Movement assay of cultured adult S. mansoni (Example 2); type: cell-based; conditions: Schistosoma mansoni; FIG. 19B; read-out: EC50, stimulation of adult schistosome movement
Source text: Female Swiss Webster mice infected with S. mansoni cerceria (NMRI strain) were sacrificed 49 days post infection by CO2 euthanasia. Adult schistosomes were recovered by perfusion with a solution of 0.85% sodium chloride+0.75% sodium citrate and dissection of the mesenteric vasculature. Harvested schistosomes were washed in RPMI 1640 Medium with GlutaMAX+5% heat inactivated FBS (Gibco) and Penicillin-Streptomycin (final concentration 100 units/mL, ThermoFisher cat #15140122).
For movement assays, worms were cultured 37° C./5% CO2 in vented 100×25 mm petri dishes (ThermoFisher cat #4031) containing 50 mL of media and used between 1-3 days after harvesting. Prior to assessing worm movement, individuals were transferred to a six well dish (4-5 individuals per well) containing 3 mL drug solution in RPMI 1640 supplemented with HEPES (25 mM) and MS (5%). Videos were recorded using a Zeiss Discovery v20 stereomicroscope and a QiCAM 12-bit cooled color CCD camera controlled by metamorph imaging software (version 7.8.1.0). 1 minute recordings were acquired at 4 frames per second, saved as a .TIFF stack, and movement was analyzed using ImageJ software as described in (PMID: 27187180, PMID: 27397763).

Sm.5HTR, sequence (G4V5G4 entry or part of it): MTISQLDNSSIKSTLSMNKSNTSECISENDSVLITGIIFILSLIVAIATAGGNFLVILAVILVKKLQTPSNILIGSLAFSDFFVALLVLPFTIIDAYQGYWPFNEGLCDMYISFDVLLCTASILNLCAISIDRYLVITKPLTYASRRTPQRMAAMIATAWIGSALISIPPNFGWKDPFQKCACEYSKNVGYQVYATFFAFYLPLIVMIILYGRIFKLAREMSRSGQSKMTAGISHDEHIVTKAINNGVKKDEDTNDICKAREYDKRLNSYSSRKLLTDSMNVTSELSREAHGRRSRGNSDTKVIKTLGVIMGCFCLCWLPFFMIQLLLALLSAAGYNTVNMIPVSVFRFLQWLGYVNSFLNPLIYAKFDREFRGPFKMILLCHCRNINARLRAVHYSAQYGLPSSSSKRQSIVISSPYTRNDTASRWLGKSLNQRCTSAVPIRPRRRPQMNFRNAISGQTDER

## CN1C[C@H](C(=O)N[C@]2(C)O[C@@]3(O)[C@@H]4CCCN4C(=O)[C@H](Cc4ccccc4)N3C2=O)C=C2c3cccc4[nH]cc(c34)C[C@H]21 [ergotamine]
[1]
  agonist efficacy at Sm.5HTR, in words: partial agonism
[1]; read-out: EC50, agonist activity at Sm.5HTR
  EC50: 232 nM
[2]
  EC50: 10 ± 3 nM
